We go through four molecules from patent publication US7951800B2, “Anti-infective agents” (Abbott Laboratories, Inc., priority 2006, dated 2011).

For one series, the system named is HCV 1b-N replicon cells. The experiment in a line: passage of HCV 1b-N replicon cells with compounds alone or in combination, absence of neomycin. The class given is cell-based. To be noted: individual compounds or agents at 10 to 20-fold above their respective EC50. On the procedure: The effect of compound I on HCV replicon was evaluated alone or in combination with other anti-HCV agents. […] The EC50 values represent the 50% inhibitory concentrations of these compounds/agents in replicon cell assays.
(In general: A replicon is a self-replicating genome or part of one, used to study replication in cells.)

A further series concerns HCV replicon. The experiment in a line: HCV replicon assays. It is filed as cell-based. The procedure: The 50% inhibitory concentration of an HCV inhibitor (EC50) can also be evaluated using HCV replicon assays as described in Ikeda et al., J. VIROL., 76:2997-3006 (2002), and Blight et al., SCIENCE, 290:1972-1974 (2000), with the following modifications. Replicon cells are plated at 3×10^3 cells per well in 96-well plate in DMEM medium containing 5% fetal calf serum. At day 1, culture medium is removed and replaced with fresh medium containing eight serial 2-fold dilutions of the compound of interest. The final concentration of DMSO in medium is 0.5%. The untreated control culture is treated in an identical manner except no inhibitor is added to the medium. Plates are incubated in a CO2 incubator at 37° C. On Day 4, 100 μl lysis buffer (RTL) (Qiagen) is added to each well after removal of culture medium. RNA is purified according to manufacturer's recommendations (Qiagen RNAeasy) and eluted in 200 μl of water. The HCV RNA level is quantified from a portion (5 μl out of 200 μl) of the purified RNA by real-time RT-PCR method. The primers and probe are derived from specific sequence in the 5′UTR region. RT-PCR reaction is performed at 48° C. for 30 min, followed by 40 cycles set to 95° C., 15 s; 54° C., 30 s; and 72° C., 40 s. […]

A short description of series [1]: liver concentrations after oral dosing in rats. It is filed as in vivo, Male Sprague-Dawley derived rats. To be noted: rat; for concentration at 1 h / concentration at 12 h / concentration at 24 h: male, Sprague-Dawley, liver, 5 mg/kg oral; for EC50 multiple: ratio of post 24-hour liver concentration over EC50 value: EC50 from HCV replicon assays. On the procedure: Compounds I, II and III were prepared as a solution in a DMSO: PEG-400 vehicle at a concentration of 5 mg/mL shortly before oral dosing. Male Sprague-Dawley derived rats, weighing 250-350 grams, were obtained from Charles River Laboratories, Inc. (Wilmington, Mass.). The animals were fasted overnight prior to dosing and throughout the study period, but were allowed water ad libitum. Animals were allowed chow ad libitum post 12 hr. Each study used a group of 3 rats. Each rat received a 5 mg/kg (1 mL/kg) oral dose of compound I, II or III administered by gavage. At selected time points after dosing, groups of three rats were euthanized with CO2 and exsanguinated by cardiac puncture. The entire liver tissue from each animal was removed and placed in a labeled plastic container. Groups of rats were sacrificed 1, 12 and 24 hours after drug administration. The liver samples were stored on ice (about 4° C.), and then assayed for the concentration of each compound using high performance liquid chromatographic procedures.

Turning to `CS(=O)(=O)NCc1csc2c1S(=O)(=O)N=C(c1c(O)c3ccccc3n(NC3CCC3)c1=O)N2` [compound I, N-[(3-{1-[(cyclobutyl)amino]-4-hydroxy-2-oxo-1,2-dihydro-quinolin-3-yl}-1,1-dioxo-1,4-dihydro-1λ^6-thieno[2,3-e][1,2,4]thiadiazin-7-yl)methyl]methanesulfonamide], in the series on HCV 1b-N replicon cells, the “HCV RNA levels during treatment” value is on record as “significantly reduced” and the “elimination of HCV RNA from replicon cells” value is reported as “none of them eliminated the HCV RNA”. In the series on HCV replicon, the “higher potency in the inhibition of HCV replication as compared to 1-Benzyl-4-hydroxy-3-[7-(hydroxymethyl)-1,1-dioxido-4H-thieno[2,3-e][1,2,4]thiadiazin-3-yl]quinolin-2(1H)-one” value is listed as “about 100 fold”. Further, in the series on HCV replicon (Hepatitis C virus, read-out: 50% inhibitory concentration (EC50), HCV replicon assays), the EC50 was approximately 2.5 nM. In series [1], this molecule showed a concentration at 1 h of 18700 ng/g, a concentration at 12 h of 19200 ng/g and a concentration at 24 h of 2420 ng/g. In series [1] (24 hours after oral dosing), the “liver concentration of compound I relative to those of compounds II and III” value is 8-20 times; the “EC50 multiple: ratio of post 24-hour liver concentration over EC50 value” (from here on “EC50 multiple: ratio”) is “more than 1.800 fold”.

Regarding `CS(=O)(=O)NCc1csc2c1S(=O)(=O)N=C(c1c(O)c3ccccc3n(NCC3CC3)c1=O)N2` [compound II, N-[(3-{1-[(cyclopropylmethyl)amino]-4-hydroxy-2-oxo-1,2-dihydroquinolin-3-yl}-1,1-dioxido-4H-thieno[2,3-e][1,2,4]thiadiazin-7-yl)methyl]methanesulfonamide], in series [1], the concentration at 1 h was found to be 18900 ng/g, the concentration at 12 h amounted to 7920 ng/g and the concentration at 24 h came out at 120 ng/g. In series [1] (24 hours after oral dosing), the “EC50 multiple: ratio” value is recorded as “significantly lower than that of compound I”.

In series [1], `CS(=O)(=O)Nc1ccc2c(c1)S(=O)(=O)N=C(c1c(O)c3ccccc3n(NC3CCC3)c1=O)N2` [compound III, N-{3-[1-(cyclobutylamino)-4-hydroxy-2-oxo-1,2-dihydroquinolin-3-yl]-1,1-dioxido-4H-1,2,4-benzothiadiazin-7-yl}methanesulfonamide] yielded a concentration at 1 h of 8790 ng/g, a concentration at 12 h of 4140 ng/g and a concentration at 24 h of 280 ng/g. In addition, in series [1] (24 hours after oral dosing), the “EC50 multiple: ratio” value was “significantly lower than that of compound I”.

Turning to `CCC[C@H](NC(=O)C1[C@H]2CCC[C@H]2CN1C(=O)[C@@H](NC(=O)[C@@H](NC(=O)c1cnccn1)C1CCCCC1)C(C)(C)C)C(=O)C(=O)NC1CC1` (stereo partly shown) [compound VX-950], in the series on HCV 1b-N replicon cells, the “HCV RNA levels during treatment” value is on record as “significantly reduced” and the “elimination of HCV RNA from replicon cells” value is listed as “none of them eliminated the HCV RNA”.
